The record followed here is US20070117808A1, “Substituted Cycloalkylpyrrolones As Allosteric Modulators Of Glucokinase” (priority 2005, published 2007).

Assay [1] concerns the target T1, human pancreas Glucokinase (GK) (Homo sapiens, UniProt P35557).
T1 construct: (His)6; made in house; host or cells: Escherichia coli
T1 sequence (P35557 1-465): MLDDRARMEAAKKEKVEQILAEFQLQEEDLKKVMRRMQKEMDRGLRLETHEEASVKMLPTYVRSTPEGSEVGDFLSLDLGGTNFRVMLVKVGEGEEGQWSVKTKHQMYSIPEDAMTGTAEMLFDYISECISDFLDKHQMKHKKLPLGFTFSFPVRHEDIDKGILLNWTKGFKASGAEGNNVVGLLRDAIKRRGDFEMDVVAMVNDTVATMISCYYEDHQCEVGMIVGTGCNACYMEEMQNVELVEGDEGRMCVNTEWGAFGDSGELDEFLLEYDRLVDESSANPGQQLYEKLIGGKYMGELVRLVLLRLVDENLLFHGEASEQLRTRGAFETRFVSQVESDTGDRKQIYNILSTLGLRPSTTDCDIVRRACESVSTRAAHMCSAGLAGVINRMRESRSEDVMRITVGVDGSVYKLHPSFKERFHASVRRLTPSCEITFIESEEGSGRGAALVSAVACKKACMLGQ
The assay can be described thus: Glucokinase enzyme assay, pancreas GK. The assay is classed as biochemical. The note with it: for EC50: concentration that produces 50% activation above the vehicle control; for EC100%: concentration that produces 100% activation above the vehicle control; for activation at 50 µM: percentage increase in GK activity above vehicle control, compound 50 μM, 12 mM glucose. An excerpt:
(§1) An enzymatic Glucokinase (GK) assay using purified recombinant human liver/pancreas enzyme was used to evaluate the effects of potential small molecule modulators.
(§2) In this assay, GK catalyzes glucose phosphorylation in the presence of ATP. The product of this reaction, glucose-6-phosphate, was then oxidized by an excess of glucose-6-phosphate dehydrogenase to produce gluconate-6-phosphate with concomitant reduction of nicotinamide adenine dinucleotide (NAD). […] Human GK (Liver/Pancreas) was expressed in Escherichia coli as a (His) 6-tagged fusion protein and was purified by metal chelate affinity chromatography. The assay was performed in a final incubation volume of 80 μl in a 96-well clear low UV absorption plates. The incubation mixture consisted of 25 mM HEPES, 2 mM MgSO4, 1 mM dithiothreotol (DTT), 1 mg/mL bovine serum albumin (BSA), 1 mM ATP, 1 mM NAD, and 12 mM glucose, 10 units per mL glucose-6-phosphate dehydrogenase, and +/−300 ng per mL GK. For determination of the affinity (Km) and Vmax, different concentrations of glucose ranging from 0.5 mM to 40 mM were used in the assay; see Grimsby, J., Sarabu, R.; Grippo, J. F.; et. al. Science 2003, 301, 370-373. Production of reduced NAD (Nicotinamide Adenine Dinucleotide) was measured as changes in absorption at 340 nm in 96-well plate reader (Envision model # 2101 Multilabel Plate reader). % Activation @ 50 μM was calculated as the percentage increase in GK activity above the vehicle control with the effective concentration of the compound being 50 μM. EC50% (μM) was calculated as the effective concentration of the compound that produces 50% activation above the vehicle control, and EC100% (μM) was calculated as the effective concentration of the compound that produces 100% activation above the vehicle control.

The target in assay [2] is T2, human liver Glucokinase (GK) (Homo sapiens, UniProt P35557).
T2 construct: (His)6; made in house; host or cells: Escherichia coli
T2 sequence (P35557 1-466 isoform P35557-2): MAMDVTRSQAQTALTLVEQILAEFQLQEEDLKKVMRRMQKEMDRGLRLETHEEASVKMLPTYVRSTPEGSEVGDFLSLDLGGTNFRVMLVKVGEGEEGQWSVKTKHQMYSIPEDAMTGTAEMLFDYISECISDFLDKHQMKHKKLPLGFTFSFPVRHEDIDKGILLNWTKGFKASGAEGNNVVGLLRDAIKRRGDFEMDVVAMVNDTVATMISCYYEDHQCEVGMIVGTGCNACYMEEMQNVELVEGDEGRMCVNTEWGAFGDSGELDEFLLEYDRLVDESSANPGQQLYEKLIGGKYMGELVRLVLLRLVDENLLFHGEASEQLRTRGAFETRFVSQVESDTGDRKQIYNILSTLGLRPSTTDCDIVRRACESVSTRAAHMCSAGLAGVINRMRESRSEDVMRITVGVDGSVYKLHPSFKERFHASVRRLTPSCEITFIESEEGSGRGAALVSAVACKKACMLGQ
The assay can be described thus: Glucokinase enzyme assay, liver GK. The note with it: for EC50: concentration that produces 50% activation above the vehicle control; for EC100%: concentration that produces 100% activation above the vehicle control; for activation at 50 µM: percentage increase in GK activity above vehicle control, compound 50 μM, 12 mM glucose. The assay is classed as biochemical.
Source text: as §1, §2

Where “and” joins values, the source holds several entries; their conditions need not be identical. Identical values can stand only once. Where only a bound is given, the exact number is not on record here.

Regarding `NC(=O)c1ccc(NC(=O)CSC2C3=C(CCCC3)C(=O)N2Cc2ccc(F)cc2)nc1` (stereo not shown) [Compound 20, 6-{2-[2-(4-Fluorobenzyl)-3-oxo-2,3,4,5,6,7-hexahydro-1H-isoindol-1-sulfanyl]-acetylamino}-nicotinamide], in assay [1], the EC50 was 450 nM and 270 nM; the “EC100%” value was 2 µM and 3.6 µM.

Consider `COc1ccc(CN2C(=O)C3=C(CCC3)C2SCC(=O)Nc2ccccn2)cc1` (stereo not shown) [Compound 16, 2-[2-(4-Methoxy-benzyl)-3-oxo-1,2,3,4,5,6-hexahydro-cyclopenta[c]pyrrol-1-ylsulfanyl]-N-pyridin-2-yl-acetamide], for which, in assay [1], the EC50 came out at 1100 nM, the “EC100%” value was 4.9 µM and the activation at 50 µM was determined as 190%.

Turning to `COC(=O)c1ccc(NC(=O)CSC2C3=C(CCCC3)C(=O)N2Cc2ccc(OC(C)C)cc2)nc1` (stereo not shown) [Compound 5], in assay [2], the EC50 was 3100 nM and 1050 nM; the “EC100%” value came to 5.54 µM.

For the molecule `COc1ccc(CN2C(=O)C3=C(CCCC3)C2SCC(=O)Nc2ccc(C)cn2)cc1OC` (stereo not shown) [Compound 11, 2-[2-(3,4-Dimethoxy-benzyl)-3-oxo-2,3,4,5,6,7-hexahydro-1H-isoindol-1-ylsulfanyl]-N-(5-methyl-pyridin-2-yl)-acetamide], in assay [1], the EC50 was 800 nM, the “EC100%” value turned out to be 5.7 µM and the activation at 50 µM worked out at 168%. Besides, in assay [2], the EC50 was determined as 550 nM, the “EC100%” value amounted to 3.5 µM and the activation at 50 µM was 202%.

In the case of `O=C(CSC1C2=C(CCCC2)C(=O)N1Cc1ccncc1)Nc1ccccn1` (stereo not shown) [Compound 19, 2-(3-Oxo-2-pyridin-4-ylmethyl-2,3,4,5,6,7-hexahydro-1H-isoindol-1-ylsulfanyl)-N-pyridin-2-yl-acetamide], in assay [1], the EC50 stood at 1600 nM, the “EC100%” value stood at 5 µM and the activation at 50 µM stood at 218%.

Regarding `O=C(CSC1C2=C(CCCC2)C(=O)N1Cc1cccnc1)Nc1ccccn1` (stereo not shown) [Compound 18, 2-(3-Oxo-2-pyridin-3-ylmethyl-2,3,4,5,6,7-hexahydro-1H-isoindol-1-ylsulfanyl)-N-pyridin-2-yl-acetamide], in assay [1], the EC50 stood at 3600 nM and the “EC100%” value turned out to be 22 µM.

Turning to `COc1ccc(CN2C(=O)C3=C(CCCC3)C2SCC(=O)Nc2ccccn2)cc1` (stereo not shown) [Compound 3, 2-[2-(4-Methoxy-benzyl)-3-oxo-2,3,4,5,6,7-hexahydro-1H-isoindol-1-ylsulfanyl]-N-pyridin-2-yl-acetamide], in assay [2], the EC50 was 390 nM, the “EC100%” value amounted to 1 µM and the activation at 50 µM is 250%.

Regarding `COC(=O)c1ccc(NC(=O)CSC2C3=C(CCCC3)C(=O)N2Cc2ccc(OC)c(OC)c2)nc1` (stereo not shown) [Compound 9, 6-{2-[2-(3,4-Dimethoxy-benzyl)-3-oxo-2,3,4,5,6,7-hexahydro-1H-isoindol-1-ylsulfanyl]-acetylamino}-nicotinic acid methyl ester], in assay [1], the EC50 turned out to be 330 nM, the “EC100%” value is 2.2 µM and the activation at 50 µM is 164%. Moreover, in assay [2], the EC50 was determined as 250 nM, the “EC100%” value amounted to 1.43 µM and the activation at 50 µM is 206%.

Take `COC(=O)c1ccc(NC(=O)CSC2C3=C(CCCC3)C(=O)N2Cc2ccc(OC)cc2)nc1` (stereo not shown) [Compound 2]: in assay [1], the EC50 is 350 nM and the “EC100%” value was 1.32 µM. Besides, in assay [2], the EC50 is 160 nM and 210 nM; the “EC100%” value was 0.52 µM and 0.98 µM.

`COc1ccc([C@H](C)N2C(=O)C3=C(CCCC3)[C@H]2SCC(=O)Nc2ccccn2)cc1` (single isomer, unassigned) [Compound 7]: the values for the activation at 50 µM in assay [1] and in assay [2] were 35% and 0%, respectively.

As to `COc1ccc(CN2C(=O)C3=C(CCCC3)C2SCC(=O)Nc2ccc(C(N)=O)cn2)cc1OC` (stereo not shown) [Compound 13, 6-{2-[2-(3,4-Dimethoxy-benzyl)-3-oxo-2,3,4,5,6,7-hexahydro-1H-isoindol-1-ylsulfanyl]-acetylamino}-nicotinamide], in assay [1], the EC50 is 210 nM and the “EC100%” value amounted to 3.1 µM.

For `COc1ccc(CN2C(=O)C3=C(CCCC3)C2SCC(=O)Nc2ccccn2)cc1OC` (stereo not shown) [Compound 10, 2-[2-(3,4-Dimethoxy-benzyl)-3-oxo-2,3,4,5,6,7-hexahydro-1H-isoindol-1-ylsulfanyl]-N-pyridin-2-yl-acetamide], in assay [1], the EC50 came out at 450 nM and the “EC100%” value stood at 1.8 µM. In assay [2], the EC50 was 390 nM, the “EC100%” value came to 1.35 µM and the activation at 50 µM came to 259%.

Regarding `COc1ccc(CN2C(=O)C3=C(CCCC3)C2SCC(=O)Nc2ccc(C(=O)O)cn2)cc1` (stereo not shown) [Compound 8, 6-{2-[2-(4-Methoxy-benzyl)-3-oxo-2,3,4,5,6,7-hexahydro-1H-isoindol-1-ylsulfanyl]-acetylamino}-nicotinic acid], the EC50 in assay [1] is 1300 nM and 740 nM and 630 nM. Besides, in assay [2], the EC50 worked out at 900 nM and the “EC100%” value worked out at 2.5 µM.

`COc1ccc(CN2C(=O)C3=C(CCCC3)C2SCC(=O)Nc2nccs2)cc1OC` (stereo not shown) [Compound 12, 2-[2-(3,4-Dimethoxy-benzyl)-3-oxo-2,3,4,5,6,7-hexahydro-1H-isoindol-1-ylsulfanyl]-N-thiazol-2-yl-acetamide]: in assay [1], the EC50 was 4300 nM, the “EC100%” value was 17.1 µM and the activation at 50 µM is 143%. Moreover, in assay [2], the EC50 came to 3100 nM, the “EC100%” value was found to be 10.3 µM and the activation at 50 µM was determined as 196%.

`O=C(CSC1C2=C(CCCC2)C(=O)N1Cc1ccc(F)cc1)Nc1ccc(C(=O)O)cn1` (stereo not shown) [Compound 21, 6-{2-[2-(4-Fluoro-benzyl)-3-oxo-2,3,4,5,6,7-hexahydro-1H-isoindol-1-ylsulfanyl]-acetylamino}-nicotinic acid]: in assay [1], the EC50 amounted to 2200 nM, the “EC100%” value turned out to be 12 µM and the activation at 50 µM worked out at 165%.

`COc1ccc(CN2C(=O)C3=C(CCCC3)C2OCC(=O)Nc2ccccn2)cc1` (stereo not shown) [Compound 4, 2-[2-(4-Methoxy-benzyl)-3-oxo-2,3,4,5,6,7-hexahydro-1H-isoindol-1-yloxy]-N-pyridin-2-yl-acetamide]: in assay [2], the EC50 was 7780 nM, the “EC100%” value is 31.4 µM and the activation at 50 µM stood at 114%.

As for `O=C(CSC1C2=C(CCCC2)C(=O)N1Cc1ccc([N+](=O)[O-])cc1)Nc1ccccn1` (stereo not shown) [Compound 14, 2-[2-(4-Nitro-benzyl)-3-oxo-2,3,4,5,6,7-hexahydro-1H-isoindol-1-ylsulfanyl]-N-pyridin-2-yl-acetamide], in assay [1], the EC50 was found to be 10900 nM, the “EC100%” value is above 50 µM and the activation at 50 µM turned out to be 79.4%.

Take `O=C(CSC1C2=C(CCCC2)C(=O)N1Cc1ccc(O)cc1)Nc1nccs1` (stereo not shown) [Compound 15, 2-[2-(4-Hydroxy-benzyl)-3-oxo-2,3,4,5,6,7-hexahydro-1H-isoindol-1-ylsulfanyl]-N-thiazol-2-yl-acetamide]: in assay [1], the EC50 worked out at 7300 nM, the “EC100%” value was above 50 µM and the activation at 50 µM worked out at 106%.

Turning to `O=C(CSC1C2=C(CCCC2)C(=O)N1Cc1cccc2ccccc12)Nc1ccccn1` (stereo not shown) [Compound 17, 2-(2-Naphthalen-1-ylmethyl-3-oxo-2,3,4,5,6,7-hexahydro-1H-isoindol-1-ylsulfanyl)-N-pyridin-2-yl-acetamide], in assay [1], the EC50 stood at 710 nM, the “EC100%” value was determined as 6.3 µM and the activation at 50 µM stood at 125%.
